According to the supplement of paper PMC10307832:

Columns and labels:
Assay in all cases: relative viability (nuclei count vs DMSO), 5 days (fraction); higher = more cells survive
EHT 1864 + Luminespib = compound: C1COCCN1CC2=CC(=O)C(=CO2)OCCCCCSC3=C4C=CC(=CC4=NC=C3)C(F)(F)F [EHT 1864] + CCNC(=O)c1noc(-c2cc(C(C)C)c(O)cc2O)c1-c1ccc(CN2CCOCC2)cc1 [Luminespib] (partner 0.01 µM)
Procedure, shortened: (§1)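 Values are medians from duplicate plates. Each reflects relative viability, defined as the nuclei count of treated wells over that of vehicle wells. Lung cancer cell lines in 1536-well plates were pin-tool dosed one day after seeding with one drug alone or with a fixed anchor-drug dose plus five library-drug doses (not always all listed) in √10 steps, then fixed, stained and imaged at 4× after 5 days.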

EHT 1864 + Lapatinib = compound: C1COCCN1CC2=CC(=O)C(=CO2)OCCCCCSC3=C4C=CC(=CC4=NC=C3)C(F)(F)F [EHT 1864] + CS(=O)(=O)CCNCc1ccc(-c2ccc3ncnc(Nc4ccc(OCc5cccc(F)c5)c(Cl)c4)c3c2)o1 [Lapatinib] (partner 2 µM)
Procedure, shortened: as §1

EHT 1864 + Decitabine = compound: C1COCCN1CC2=CC(=O)C(=CO2)OCCCCCSC3=C4C=CC(=CC4=NC=C3)C(F)(F)F [EHT 1864] + Nc1ncn([C@H]2C[C@H](O)[C@@H](CO)O2)c(=O)n1 [Decitabine] (partner 2 µM)
Procedure, shortened: as §1

EHT 1864 + Olaparib = compound: C1COCCN1CC2=CC(=O)C(=CO2)OCCCCCSC3=C4C=CC(=CC4=NC=C3)C(F)(F)F [EHT 1864] + O=C(c1cc(Cc2n[nH]c(=O)c3ccccc23)ccc1F)N1CCN(C(=O)C2CC2)CC1 [Olaparib] (partner 8 µM)
Procedure, shortened: as §1

Cell Line	relative viability (EHT 1864 + Luminespib; first compound 0.04 µM)	relative viability (EHT 1864 + Luminespib; first compound 0.1265 µM)	relative viability (EHT 1864 + Luminespib; first compound 0.4 µM)	relative viability (EHT 1864 + Luminespib; first compound 1.265 µM)	relative viability (EHT 1864 + Luminespib; first compound 4 µM)	relative viability (EHT 1864 + Lapatinib; first compound 0.04 µM)	relative viability (EHT 1864 + Lapatinib; first compound 0.1265 µM)	relative viability (EHT 1864 + Lapatinib; first compound 0.4 µM)	relative viability (EHT 1864 + Lapatinib; first compound 1.265 µM)	relative viability (EHT 1864 + Lapatinib; first compound 4 µM)	relative viability (EHT 1864 + Decitabine; first compound 0.04 µM)	relative viability (EHT 1864 + Decitabine; first compound 0.1265 µM)	relative viability (EHT 1864 + Decitabine; first compound 0.4 µM)	relative viability (EHT 1864 + Decitabine; first compound 1.265 µM)	relative viability (EHT 1864 + Decitabine; first compound 4 µM)	relative viability (EHT 1864 + Olaparib; first compound 0.04 µM)	relative viability (EHT 1864 + Olaparib; first compound 0.1265 µM)	relative viability (EHT 1864 + Olaparib; first compound 0.4 µM)	relative viability (EHT 1864 + Olaparib; first compound 1.265 µM)	relative viability (EHT 1864 + Olaparib; first compound 4 µM)
A-427	0.876	0.952	0.899	0.942	0.906	1.09	1.06	1	1.09	1.07	0.566	0.572	0.548	0.564	0.59	0.768	0.734	0.778	0.678	0.713
NCI-H322M	0.877	0.859	0.955	0.529	1.06	0.613	0.527	0.634	0.522	0.629	0.659	0.692	0.698	0.679	0.724	0.704	0.822	0.811	0.782	0.879
NCI-H1975	0.143	0.284	0.201	0.155	0.199	0.868	0.9	0.802	0.837	0.856	0.41	0.411	0.404	0.384	0.398	0.812	0.828	0.781	0.791	0.719
NCI-H1437	1.1	1.04	1.03	0.912	0.681	0.793	0.723	0.678	0.636	0.62	0.607	0.523	0.542	0.566	0.518	0.621	0.587	0.622	0.523	0.523
NCI-H2009	1	0.926	0.979	0.913	0.789	0.77	0.749	0.921	0.963	0.824	0.357	0.356	0.354	0.382	0.412	0.618	0.548	0.702	0.66	0.49
NCI-H1651	0.694	0.907	0.803	0.704	0.57	0.856	0.788	0.843	0.824	0.912	0.55	0.695	0.631	0.652	0.594	0.165	0.184	0.177	0.174	0.191
NCI-H1666	1	1.03	0.877	0.993	0.968	0.822	0.484	0.584	0.775	0.841	0.755	0.742	0.712	0.768	0.865	0.732	0.756	0.73	0.839	0.775
NCI-H1734	0.242	–	0.222	0.182	0.179	1.08	0.86	1.09	1.01	1.12	0.495	0.552	0.478	0.511	0.514	0.71	0.64	0.619	0.679	0.635
EPLC-272H	0.347	0.365	0.266	0.521	0.606	1.06	0.624	1.12	0.88	0.801	0.406	0.359	0.405	0.355	0.396	0.741	0.672	0.788	0.642	0.611
NCI-H2023	0.585	0.723	0.704	0.634	0.68	0.813	0.558	0.727	0.919	0.84	0.213	0.212	0.223	0.259	0.176	0.403	0.525	0.411	0.48	0.461
BEN	0.264	0.17	0.527	0.333	0.533	0.811	0.638	0.671	0.556	0.666	0.775	0.727	0.767	0.764	0.702	1.06	0.982	0.836	0.914	1
COR-L 105	0.748	0.751	0.808	0.628	0.686	0.345	0.374	0.338	0.38	0.334	0.781	0.578	0.574	0.786	0.637	0.792	0.692	0.777	0.648	0.624
ABC-1	0.816	–	0.48	0.387	0.422	1.06	1.15	0.949	0.729	1.15	1.35	0.91	1.15	0.881	0.901	1.24	0.695	0.861	0.629	0.762
HCC-15	0.451	–	0.24	0.369	0.251	0.859	0.61	0.872	0.76	0.873	0.735	–	0.62	0.624	0.624	0.717	–	0.678	0.685	0.706
NCI-H358	0.302	0.398	0.313	0.469	0.414	0.477	–	0.441	0.413	0.434	0.238	0.241	0.212	0.263	0.192	0.626	0.594	0.574	0.551	0.548
PC-3 [JPC-3]	0.742	0.695	0.664	0.673	0.696	0.508	0.405	0.452	0.474	0.438	0.801	0.745	0.877	0.954	0.844	1.15	1.04	1.14	1.03	1.05
